Assay results published in PubChem BioAssay (NCI).
“And” between values parts separate entries of the source, which are not always exact repeats. Identical values can stand only once.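 Cells were grown in 96-well plates and exposed to each compound for 48 hours at five concentrations; endpoints were interpolated linearly between bracketing concentrations, or set to the highest concentration if not reached. Here, GI50 denotes the concentration required for 50% inhibition of growth. TGI: total growth inhibition.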

How the values were obtained:
Assay in all cases: NCI tumour cell line growth inhibition, 48 h
[1] = system: DMS 273 small cell lung
[2] = system: LXFL 529 NSCLC
[3] = system: MCF7 breast
[4] = system: NCI/ADR-RES ovarian
[5] = system: A549 NSCLC
[6] = system: DLD-1 colon
[7] = system: SN12K1 renal
[8] = system: SNB-78 CNS
[9] = system: HOP-18 NSCLC
[10] = system: XF 498 CNS
[11] = system: DMS 114 small cell lung
[12] = system: SK-MEL-28 melanoma
[13] = system: P388/ADR leukemia
[14] = system: P388 leukemia
[15] = system: MDA-N
[16] = system: NCI-H226 lung
[17] = system: HL-60(TB) leukemia
[18] = system: MALME-3M melanoma
[19] = system: COLO 205 colon
[20] = system: HCT-116 colon
[21] = system: HCT-15 colon
[22] = system: IGROV1 ovarian
[23] = system: KM20L2 colon
[24] = system: OVCAR-5 ovarian
[25] = system: SF-295 CNS
[26] = system: HOP-92 NSCLC
[27] = system: OVCAR-3 ovarian
[28] = system: SR leukemia
[29] = system: M19-MEL melanoma
[30] = system: U251 CNS
[31] = system: UACC-62 melanoma
[32] = system: NCI-H460 lung
[33] = system: RXF 393 renal
[34] = system: SK-OV-3 ovarian
[35] = system: KM12 colon
[36] = system: ACHN renal
[37] = system: TK-10 renal
[38] = system: SF-539 CNS
[39] = system: SF-268 CNS
[40] = system: PC-3 prostate
[41] = system: BT-549 breast
[42] = system: HCC-2998 colon
[43] = system: A498 renal
[44] = system: DU-145 prostate
[45] = system: MOLT-4 leukemia
[46] = system: UACC-257 melanoma
[47] = system: SK-MEL-2 melanoma
[48] = system: MDA-MB-231 breast
[49] = system: RPMI-8226 leukemia
[50] = system: HT29 colon
[51] = system: NCI-H522 lung
[52] = system: NCI-H23 lung
[53] = system: SNB-75 CNS
[54] = system: EKVX NSCLC
[55] = system: SK-MEL-5 melanoma
[56] = system: SW-620 colon
[57] = system: LOX IMVI melanoma
[58] = system: K-562 leukemia
[59] = system: HS 578T breast
[60] = system: OVCAR-4 ovarian
[61] = system: UO-31 renal
[62] = system: MDA-MB-435
[63] = system: CCRF-CEM leukemia
[64] = system: SN12C renal
[65] = system: M14 melanoma
[66] = system: HOP-62 NSCLC
[67] = system: SNB-19 CNS
[68] = system: T-47D breast
[69] = system: 786-0 renal

In the case of `CC(=O)O[C@H]1C(=O)[C@@]2(C)[C@H]([C@H](OC(=O)c3ccccc3)[C@]3(O)C[C@H](OC(=O)[C@H](O)[C@@H](NC(=O)c4ccccc4)c4ccccc4)C(C)=C1C3(C)C)[C@]1(OC(C)=O)CO[C@@H]1C[C@@H]2O`, the TGI [1] is reported as 3.68 µM, the GI50 [2] is reported as 0.00356 µM and the TGI [2] is reported as 55.2 µM. The TGI [3] was 15.1 µM and 88.4 µM and 56.1 µM, the TGI [4] was 15.1 µM and > 100 µM and 37.5 µM and the TGI [5] was 25 µM and > 100 µM and 67.7 µM. For the same molecule, the GI50 [6] was 0.0551 µM, the TGI [6] was 24.4 µM and > 100 µM and the TGI [7] was 25 µM. For the same molecule, the GI50 [8] was 0.087 µM, the TGI [8] was 24.3 µM and 45.1 µM and the TGI [9] was 25 µM. For the same molecule, the TGI [10] was 0.0355 µM, the TGI [11] was 0.0217 µM and the TGI [12] was 25 µM and > 71 µM. For the same molecule, the TGI [13] was 25 µM, the TGI [14] was 25 µM and the GI50 [15] was 0.0025 µM and 0.0231 µM.
With `C[C@]12CC[C@H](OC3OC(CO)C(O)C(O)C3O)C[C@H]1CC[C@@H]1[C@@H]2CC[C@]2(C)[C@@H](C3=CCOC3=O)CC[C@]12O` (stereo partly specified) the TGI [16] was 26.4 µM and > 100 µM, the GI50 [17] was over 100 µM and the TGI [17] was 28 µM and > 100 µM. For the same molecule, the GI50 [18] was 23 µM and 16.2 µM, the TGI [18] was 20.4 µM and > 100 µM and the GI50 [19] was over 100 µM. For the same molecule, the TGI [19] was 50 µM and > 100 µM, the TGI [1] was 25.1 µM and the GI50 [20] was > 100 µM and 51.3 µM. The TGI [20] was 50 µM and > 100 µM, the GI50 [21] was over 100 µM and the TGI [21] was 50 µM and > 100 µM. For the same molecule, the GI50 [22] was over 100 µM, the TGI [22] was 50 µM and > 100 µM and the TGI [23] was 50 µM. The GI50 [3] was over 100 µM, the TGI [3] was 47.2 µM and > 100 µM and the GI50 [24] was over 100 µM. The TGI [24] was over 100 µM, the TGI [25] was 24.6 µM and > 100 µM and 70.7 µM and the GI50 [26] was over 100 µM. For the same molecule, the TGI [26] was 31.1 µM and > 100 µM, the GI50 [27] was 42.1 µM and > 100 µM and the TGI [27] was 50 µM and > 100 µM. The TGI [28] was over 100 µM, the TGI [29] was 37.9 µM and the GI50 [4] was over 100 µM. For the same molecule, the TGI [4] was 50 µM and > 100 µM, the TGI [30] was 47.2 µM and > 100 µM and the TGI [31] was 30.8 µM and > 100 µM. For the same molecule, the GI50 [32] was 0.943 µM and 4.26 µM, the TGI [32] was 29.4 µM and the GI50 [33] was > 100 µM and 89.2 µM. The TGI [33] was 37 µM and > 100 µM, the GI50 [34] was over 100 µM and the TGI [34] was over 100 µM. For the same molecule, the GI50 [5] was > 100 µM and 84.5 µM, the TGI [5] was 50 µM and > 100 µM and the GI50 [35] was over 100 µM. For the same molecule, the TGI [35] was 50 µM and > 100 µM, the GI50 [36] was 0.183 µM and the TGI [36] was over 100 µM. The TGI [6] was over 50 µM, the TGI [37] was over 100 µM and the TGI [7] was 41.5 µM. For the same molecule, the GI50 [38] was 0.198 µM, the TGI [38] was 7.96 µM and 1.6 µM and the TGI [8] was 50 µM. For the same molecule, the GI50 [39] was > 100 µM and 27.1 µM, the TGI [39] was 50 µM and > 100 µM and the TGI [40] was over 100 µM. The TGI [41] was over 100 µM, the GI50 [42] was over 100 µM and the TGI [42] was 50 µM and > 100 µM. The TGI [10] was 11.2 µM, the TGI [11] was 50 µM and the GI50 [43] was over 100 µM. For the same molecule, the TGI [43] was 21.1 µM and > 100 µM, the GI50 [44] was 70.6 µM and the TGI [44] was over 100 µM. For the same molecule, the GI50 [45] was 22.5 µM and > 100 µM, the TGI [45] was 50 µM and > 100 µM and the GI50 [46] was 21.9 µM and > 100 µM. For the same molecule, the TGI [46] was 50 µM and > 100 µM, the GI50 [47] was over 100 µM and the TGI [47] was 50 µM and > 100 µM. For the same molecule, the GI50 [12] was over 100 µM, the TGI [12] was 50 µM and > 100 µM and the TGI [13] was 50 µM. For the same molecule, the TGI [48] was over 100 µM, the TGI [49] was 19.5 µM and > 100 µM and the GI50 [50] was over 100 µM. The TGI [50] was 50 µM and > 100 µM, the TGI [14] was 20.9 µM and the GI50 [51] was 74.9 µM and 10.1 µM. The TGI [51] was 50 µM and > 100 µM, the GI50 [52] was over 100 µM and the TGI [52] was 50 µM and > 100 µM. The TGI [53] was 31.6 µM and > 100 µM, the GI50 [54] was over 100 µM and the TGI [54] was 29.3 µM and > 100 µM. For the same molecule, the GI50 [55] was over 100 µM, the TGI [55] was 45.7 µM and > 100 µM and the GI50 [56] was over 100 µM. For the same molecule, the TGI [56] was 50 µM and > 100 µM, the GI50 [57] was over 100 µM and the TGI [57] was 25.3 µM and > 100 µM. The GI50 [58] was over 100 µM, the TGI [58] was 50 µM and > 100 µM and the TGI [59] was over 100 µM. The GI50 [60] was > 100 µM and 20.7 µM, the TGI [60] was 50 µM and > 100 µM and the GI50 [61] was over 100 µM. The TGI [61] was 50 µM and > 100 µM, the TGI [62] was over 100 µM and the GI50 [63] was 23.4 µM and > 100 µM. The TGI [63] was 50 µM and > 100 µM, the GI50 [64] was over 100 µM and the TGI [64] was 50 µM and > 100 µM. The TGI [65] was over 100 µM, the TGI [66] was 13.8 µM and > 100 µM and 50.3 µM and the GI50 [67] was 23.4 µM and > 100 µM. The TGI [67] was 50 µM and > 100 µM, the GI50 [68] was 4.89 µM and the TGI [68] was over 100 µM. The TGI [15] was over 100 µM, the GI50 [69] was 15.4 µM and the TGI [69] was over 100 µM.
